Series [1] relates to 4T1 breast cancer cells. The experiment in a line: visible lung metastases, CATS versus paclitaxel (FIG. 7). Particulars: two boluses separated by 2 days; 100 micrograms. The class given is in vivo, BALB/c mice. The source says: This reflects into a much stronger anti-metastatic activity (FIG. 7) of CATS™ over paclitaxel, that translates to survival benefits. In this study, 40 BALB/c mice were orthotopically implanted in the mammary pad on Day 0 with 1×10^4 4T1 breast cancer cells. When tumor volume approximated 200 mm^3 (on Day 17), mice were randomly distributed into four cohorts of ten mice each. […] Mice were sacrificed when tumor diameter reached 14 mm (Day 30), at which time mice were euthanized, lungs removed, and visible lung metastases were quantitated by a second observer blinded to the treatment protocols. Floating bars depict maximum and minimum number of metastases each cohort, horizontal line indicates mean±SE.

Series [2] relates to 4T1 breast cancer cells. In words: survival with single regimen, cyclophosphamide or CATS (FIG. 8). It counts as in vivo. Particulars: 80 mg/kg ip weekly from Day 16; no mice survived beyond; control 37 days. How it is done:
Thirty mice were orthotopically implanted with 5×10^4 4T1 breast cancer cells in their mammary fat pad on Day 0. On Day 16, mice were randomized into three cohorts of ten mice each to receive weekly doses of either carrier control (Brown line, Placebo, 25 ng iv), cyclophosphamide cytotoxic drug (CD) chemotherapy (Green line, CD, 80 mg/kg ip) or CATS™ immunotherapy (Purple line, 25 ng iv). Kaplan-Meier curves analyzing surviving mice in each cohort show no mice survived beyond 37 days in the control group, or 46 days in the CD group, while 4 of 10 mice were alive at day 62 in the CATS™ treatment group.

The next series relates to 4T1 cells. The experiment in a line: survival with CATS alternating with cyclophosphamide (FIG. 10). The following applies: cyclophosphamide alone 80 mg/kg ip, two boluses over 48 hours from Day 20, then weekly. It counts as in vivo, mice. The method, then: This Kaplan-Meier graph plots survival of three groups of mice (10/cohort) implanted with 1×10^4 4T1 cells on Day 0 and initiated to treatment on Day 20 with two bolus doses over the first 48 hours, and thereafter once weekly of either placebo (blue, 50 ng IV), cyclophosphamide (Cy, orange, 80 mg/kg ip) or alternating therapy (CATS/Cy, green, 50 ng IV CATS™ boluses or every other week, alternating every other week with Cy 80 mg/kg). In this trial 100% of mice treated with CATS™ alternating therapy survived 75 days, at which time the trial was terminated.

Bounds are passed on as bounds.

On to `CC(=O)O[C@H]1C(=O)[C@@]2(C)[C@H]([C@H](OC(=O)c3ccccc3)[C@]3(O)C[C@H](OC(=O)[C@H](O)[C@@H](NC(=O)c4ccccc4)c4ccccc4)C(C)=C1C3(C)C)[C@]1(OC(C)=O)CO[C@@H]1C[C@@H]2O` [Taxol, paclitaxel], for which the “tolerability of consolidation dosing” value in the series on 4T1 breast cancer cells [1] was “toxic”. In the series with 4T1 breast cancer cells [2], `O=P1(N(CCCl)CCCl)NCCCO1` (stereo not drawn) [cyclophosphamide] registered a longest survival of at most 46 days. Besides, the “survival at Day 40” value in the series on 4T1 cells is on record as “all of the mice receiving cyclophosphamide alone were dead”.

(Values after patent publication US20160022810A1, “Method for Treating Cancers by Alternating Immunotherapeutics and Directly Oncolytic Therapeutics” (priority 2014, published 2016).)
